Test results reported in ChEMBL document CHEMBL3885881, “DrugMatrix”.

Species on record: Rattus norvegicus
Assay: DrugMatrix - Regimen: Daily Repeat
Format: toxicity, organism-based, Sprague-Dawley
Parameters: regimen Daily Repeat, gender Male, age 6-8 weeks
Conditions: in vivo, sc, route subcutaneous, […]; for ABSOLUTE BASOPHIL / ABSOLUTE EOSINOPHIL / ABSOLUTE LYMPHOCYTE / ABSOLUTE MONOCYTE / ABSOLUTE SEGMENTED NEUTROPHIL / BASOPHIL / EOSINOPHIL / ERYTHROCYTE COUNT / HEMATOCRIT / HEMOGLOBIN / LEUKOCYTE COUNT / LYMPHOCYTE / MEAN CORPUSCULAR HEMOGLOBIN / MEAN CORPUSCULAR HEMOGLOBIN CONCENTRATION / MEAN CORPUSCULAR VOLUME / MONOCYTE / NEUTROPHIL / NUCLEATED RED BLOOD CELLS / PLATELET COUNT: tissue Blood; for ALANINE AMINOTRANSFERASE / ALBUMIN / ALKALINE PHOSPHATASE / ASPARTATE AMINOTRANSFERASE / BLOOD UREA NITROGEN / CARBON DIOXIDE / CHLORIDE / CHOLESTEROL / CREATINE PHOSPHOKINASE / CREATININE / GLUCOSE / LACTATE DEHYDROGENASE / LIPASE / PHOSPHORUS / POTASSIUM / SODIUM / TOTAL BILIRUBIN / TOTAL PROTEIN / URIC ACID: tissue Plasma
[1] = 56 mg/kg, 120 h, dose level M1, time 5 day
[2] = 72 h, dose 5.6 mg/Kg, dose level Low, time 3 day
[3] = 120 h, dose 5.6 mg/Kg, dose level Low, time 5 day

Structure (SMILES): O=C(Nc1ccc(Br)cc1)c1cc(Br)cc(Br)c1O [TRIBROMSALAN]
- ABSOLUTE BASOPHIL [1]: 0 CELLS/uL
- ABSOLUTE EOSINOPHIL [1]: 183 CELLS/uL
- ABSOLUTE LYMPHOCYTE [1]: 10057 CELLS/uL
- ABSOLUTE MONOCYTE [1]: 145 CELLS/uL
- ABSOLUTE SEGMENTED NEUTROPHIL [1]: 1315 CELLS/uL
- BASOPHIL [1]: 0%
- EOSINOPHIL [1]: 1%
- ERYTHROCYTE COUNT [1]: 5.63 x10E6/uL
- HEMATOCRIT [1]: 34.6%
- HEMOGLOBIN [1]: 12.83 G/DL
- LEUKOCYTE COUNT [1]: 11.7 x10E3/uL
- LYMPHOCYTE [1]: 86.33%
- MEAN CORPUSCULAR HEMOGLOBIN [1]: 22.8 pg
- MEAN CORPUSCULAR HEMOGLOBIN CONCENTRATION [1]: 37.1 G/DL
- MEAN CORPUSCULAR VOLUME [1]: 61.47 fL
- MONOCYTE [1]: 1.33%
- NEUTROPHIL [1]: 11.33%
- NUCLEATED RED BLOOD CELLS [1]: 0 /100WBC
- PLATELET COUNT [1]: 1090 x10E3/uL
- ALANINE AMINOTRANSFERASE [1]: 51 u/L
- ALBUMIN [1]: 3.77 G/DL
- ALKALINE PHOSPHATASE [1]: 376.33 u/L
- ASPARTATE AMINOTRANSFERASE [1]: 90 u/L
- BLOOD UREA NITROGEN [1]: 16 mg/dL
- CARBON DIOXIDE [1]: 24 mmol/L
- CHLORIDE [1]: 99 MEQ/L
- CHOLESTEROL [1]: 81.33 mg/dL
- CREATINE PHOSPHOKINASE [1]: 578.33 u/L
- CREATININE [1]: 0.19 mg/dL
- GLUCOSE [1]: 142 mg/dL
- LACTATE DEHYDROGENASE [1]: 171.33 u/L
- LIPASE [1]: 7.33 u/L
- PHOSPHORUS [1]: 11.13 mg/dL
- POTASSIUM [1]: 6.14 MEQ/L
- SODIUM [1]: 146.5 MEQ/L
- TOTAL BILIRUBIN [1]: 0.23 mg/dL
- TOTAL PROTEIN [1]: 6.23 G/DL
- URIC ACID [1]: 1.13 mg/dL
- ABSOLUTE BASOPHIL [2]: 0 CELLS/uL
- ABSOLUTE EOSINOPHIL [2]: 0 CELLS/uL
- ABSOLUTE LYMPHOCYTE [2]: 7670 CELLS/uL
- ABSOLUTE MONOCYTE [2]: 0 CELLS/uL
- ABSOLUTE SEGMENTED NEUTROPHIL [2]: 730 CELLS/uL
- BASOPHIL [2]: 0%
- EOSINOPHIL [2]: 0%
- ERYTHROCYTE COUNT [2]: 4.92 x10E6/uL
- HEMATOCRIT [2]: 32.37%
- HEMOGLOBIN [2]: 12.33 G/DL
- LEUKOCYTE COUNT [2]: 8.4 x10E3/uL
- LYMPHOCYTE [2]: 91.67%
- MEAN CORPUSCULAR HEMOGLOBIN [2]: 25.1 pg
- MEAN CORPUSCULAR HEMOGLOBIN CONCENTRATION [2]: 38.13 G/DL
- MEAN CORPUSCULAR VOLUME [2]: 65.77 fL
- MONOCYTE [2]: 0%
- NEUTROPHIL [2]: 8.33%
- NUCLEATED RED BLOOD CELLS [2]: 0 /100WBC
- PLATELET COUNT [2]: 800.67 x10E3/uL
- ALANINE AMINOTRANSFERASE [2]: 47.33 u/L
- ALBUMIN [2]: 4.3 G/DL
- ALKALINE PHOSPHATASE [2]: 403.67 u/L
- ASPARTATE AMINOTRANSFERASE [2]: 74.33 u/L
- BLOOD UREA NITROGEN [2]: 15.33 mg/dL
- CARBON DIOXIDE [2]: 24.33 mmol/L
- CHLORIDE [2]: 101.67 MEQ/L
- CHOLESTEROL [2]: 72.33 mg/dL
- CREATINE PHOSPHOKINASE [2]: 270.67 u/L
- CREATININE [2]: 0.18 mg/dL
- GLUCOSE [2]: 163 mg/dL
- LACTATE DEHYDROGENASE [2]: 143 u/L
- LIPASE [2]: 8.33 u/L
- PHOSPHORUS [2]: 13.13 mg/dL
- POTASSIUM [2]: 6.25 MEQ/L
- SODIUM [2]: 144.7 MEQ/L
- TOTAL BILIRUBIN [2]: 0.3 mg/dL
- TOTAL PROTEIN [2]: 5.97 G/DL
- URIC ACID [2]: 2.13 mg/dL
- ABSOLUTE BASOPHIL [3]: 0 CELLS/uL
- ABSOLUTE EOSINOPHIL [3]: 126 CELLS/uL
- ABSOLUTE LYMPHOCYTE [3]: 12819 CELLS/uL
- ABSOLUTE MONOCYTE [3]: 78 CELLS/uL
- ABSOLUTE SEGMENTED NEUTROPHIL [3]: 1743.67 CELLS/uL
- BASOPHIL [3]: 0%
- EOSINOPHIL [3]: 0.67%
- ERYTHROCYTE COUNT [3]: 5.88 x10E6/uL
- HEMATOCRIT [3]: 36.87%
- HEMOGLOBIN [3]: 13.53 G/DL
- LEUKOCYTE COUNT [3]: 14.77 x10E3/uL
- LYMPHOCYTE [3]: 87%
- MEAN CORPUSCULAR HEMOGLOBIN [3]: 23.07 pg
- MEAN CORPUSCULAR HEMOGLOBIN CONCENTRATION [3]: 36.77 G/DL
- MEAN CORPUSCULAR VOLUME [3]: 62.77 fL
- MONOCYTE [3]: 0.67%
- NEUTROPHIL [3]: 11.67%
- NUCLEATED RED BLOOD CELLS [3]: 0 /100WBC
- PLATELET COUNT [3]: 1236 x10E3/uL
- ALANINE AMINOTRANSFERASE [3]: 46.33 u/L
- ALBUMIN [3]: 4 G/DL
- ALKALINE PHOSPHATASE [3]: 354.67 u/L
- ASPARTATE AMINOTRANSFERASE [3]: 82.33 u/L
- BLOOD UREA NITROGEN [3]: 17.67 mg/dL
- CARBON DIOXIDE [3]: 27.33 mmol/L
- CHLORIDE [3]: 101.67 MEQ/L
- CHOLESTEROL [3]: 65.33 mg/dL
- CREATINE PHOSPHOKINASE [3]: 261.33 u/L
- CREATININE [3]: 0.2 mg/dL
- GLUCOSE [3]: 152.67 mg/dL
- LACTATE DEHYDROGENASE [3]: 145.67 u/L
- LIPASE [3]: 8 u/L
- PHOSPHORUS [3]: 11.87 mg/dL
- POTASSIUM [3]: 6.3 MEQ/L
- SODIUM [3]: 145.97 MEQ/L
- TOTAL BILIRUBIN [3]: 0.13 mg/dL
- TOTAL PROTEIN [3]: 5.97 G/DL
- URIC ACID [3]: 1.5 mg/dL
